Reference: patent US20250326744A1, “PIPERAZINE DERIVATIVE OR SALT THEREOF, AND PHARMACEUTICAL COMPOSITION” (priority 2022, published 2025)
Where a name gives a salt, the structure may show the parent alone.

Key:
S-3769 strain = assay: Combinational effect with antibacterial agent against Pseudomonas aeruginosa (Test Examples 2 and 4): S-3769 strain with AMK or GM at 1/4 MIC, EC99; assay type: cell-based; conditions: for EC99, S-3769 strain, AMK / EC99, S-3769 strain, GM: Table 52, Test Example 2, 16 to 20 hours culture, OD595; for EC99, S-3769 strain, AMK / EC99, combinational effect with AMK, S-3769 strain: combined with AMK at 1/4 MIC; for EC99, S-3769 strain, GM / EC99, combinational effect with GM, S-3769 strain: combined with GM at 1/4 MIC; for EC99, combinational effect with AMK, S-3769 strain / EC99, combinational effect with GM, S-3769 strain: Test Example 4
Description: (§1) The combinational effect of the test compound with the antibacterial agent against Pseudomonas aeruginosa was evaluated.
The […] was used for evaluating the inhibitory ability against MexXY-OprM. AMK or GM was used as the antibacterial agent used in combination.
The S-3769 strain is a clinically isolated strain collected from a domestic medical institution, and is a strain in which the expression level of MexY is accelerated.
(§2) AMK and GM are aminoglycoside-based antibacterial agents, and are drugs that are not discharged outside the bacteria by MexB but are discharged outside the bacteria by MexY For the culture of each Pseudomonas aeruginosa strain, a 96-well plate (amount of culture medium per well: 100 μL) was used, and cation-adjusted Mueller Hinton broth (CAMHB) was used. The inoculation amount of the bacteria was set to 10^4 to 5 CFU/well.
(§3) The mexB (PA) strain and the S-3769 strain were cultured for 16 to 20 hours in a culture medium to which each antibacterial agent and test compounds at various concentrations (0 to 800 μM) were added, and the proliferation of the bacterial strains was evaluated by optical turbidity at 595 nm (OD595). The concentration of the antibacterial agent in the culture medium was set to ¼ MIC.
(§4) The proliferation of bacteria in a case where the test compound and the antibacterial agent were not added was measured, and compared with the proliferation of bacteria in a case where the test compound in a case where the antibacterial agent was added at the concentration of ¼ MIC was contained, and the lowest concentration of the test compound at which the proliferation was inhibited by 99% or more was defined as the drug efflux pump inhibitory ability of the test compound as 99% inhibitory effect concentration (EC99).
(§5) The effect of suppressing the proliferation of each test compound in combination with an antibacterial agent at ¼ MIC for mexB (PA) or the S-3769 strain was evaluated as follows according to the value of EC99. • S: EC99≤12.5 μM • A: 12.5 μM<EC99≤25 μM • B: 25 μM<EC99≤100 μM • C: 100 μM<EC99
(§6) The combinational effect of the test compound with the antibacterial agent against Pseudomonas aeruginosa was evaluated in the same manner as in Test Example 2.

mexB (PA) strain = assay: Combinational effect with antibacterial agent against Pseudomonas aeruginosa (Test Examples 2 and 4): mexB (PA) strain with LVFX, TC or AZT at 1/4 MIC, EC99; assay type: cell-based; conditions: for EC99, mexB (PA), AZT / EC99, mexB (PA), LVFX / EC99, mexB (PA), TC: Table 52, Test Example 2, 16 to 20 hours culture, OD595; for EC99, mexB (PA), AZT / EC99, combinational effect with AZT, mexB (PA): combined with AZT at 1/4 MIC; for EC99, mexB (PA), LVFX / EC99, combinational effect with LVFX, mexB (PA): combined with LVFX at 1/4 MIC; for EC99, mexB (PA), TC / EC99, combinational effect with TC, mexB (PA): combined with TC at 1/4 MIC; for EC99, combinational effect with AZT, mexB (PA) / EC99, combinational effect with LVFX, mexB (PA) / EC99, combinational effect with TC, mexB (PA): mexB (PA) strain, Test Example 4
Description: as §1
For the evaluation of the inhibitory ability against MexAB-OprM, a mutant strain of Pseudomonas aeruginosa in which MexAB-OprM was expressed as a main drug efflux pump (hereinafter, referred to as a “mexB (PA) strain”) was used. LVFX, TC, or AZT was used as the antibacterial agent used in combination.
The mexB (PA) strain is a strain produced by deleting the genes of MexCD-OprJ, MexEF-OprN, and MexXY in the drug efflux pump of Pseudomonas aeruginosa described in FEMS Microbiology Letters, 2001, Vol. 202, pp. 139 to 143. In the mexB (PA) strain, an expression level of MexB as a drug efflux pump is accelerated.
TC is a tetracycline-based antibacterial agent and is a drug that is discharged outside the bacteria by MexB. AZT is a monobactam-based antibacterial agent and is a drug that is discharged outside the bacteria by MexB.
as §2, §3, §4, §5, §6

| SMILES | EC99, S-3769 strain, AMK (S-3769 strain) | EC99, S-3769 strain, GM (S-3769 strain) | EC99, mexB (PA), AZT (mexB (PA) strain) | EC99, mexB (PA), LVFX (mexB (PA) strain) | EC99, mexB (PA), TC (mexB (PA) strain) | EC99, combinational effect with AMK, S-3769 strain (S-3769 strain) | EC99, combinational effect with GM, S-3769 strain (S-3769 strain) | EC99, combinational effect with AZT, mexB (PA) (mexB (PA) strain) | EC99, combinational effect with LVFX, mexB (PA) (mexB (PA) strain) | EC99, combinational effect with TC, mexB (PA) (mexB (PA) strain) |
| --- | --- | --- | --- | --- | --- | --- | --- | --- | --- | --- |
| N[C@@H](C(=O)N1CCN(Cc2c(F)cccc2OCC(F)F)CC1)C1CCN(CCc2cc(Cl)ccc2-c2ccccc2)CC1 [Example 18, Hydrobromide of (R)-2-amino-2-(1-(2-(4-chloro-[1,1′-biphenyl]-2-yl)ethyl)piperidin-4-yl)-1-(4-(2-(2,2-difluoroethoxy)-6-fluorobenzyl)piperazin-1-yl)ethan-1-one] | A (12.5 μM<EC99≤25 μM) | A (12.5 μM<EC99≤25 μM) | B (25 μM<EC99≤100 μM) | B (25 μM<EC99≤100 μM) | B (25 μM<EC99≤100 μM) | – | – | – | – | – |
| CCSc1cc(F)ccc1CN1CCN(C(=O)[C@H](N)C2CCN(CCc3cc(Cl)ccc3-c3cccc(O)c3)CC2)CC1 [Example 593, Hydrochloride of (R)-2-amino-2-(1-(2-(4-chloro-3′-hydroxy-[1,1-biphenyl]-2-yl)ethyl)piperidin-4-yl)-1-(4-(2-(ethylthio)-4-fluorobenzyl)piperazin-1-yl) ethan-1-one] | – | – | – | – | – | S (EC99≤12.5 μM) | B (25 μM<EC99≤100 μM) | B (25 μM<EC99≤100 μM) | A (12.5 μM<EC99≤25 μM) | A (12.5 μM<EC99≤25 μM) |
| CCOc1cccc(F)c1CN1CCN(C(=O)[C@H](N)C2CCN(CCc3coc4ccccc34)CC2)CC1 [Example 152, Hydrobromide of (R)-2-amino-2-(1-(2-(benzofuran-3-yl)ethyl)piperidin-4-yl)-1-(4-(2-ethoxy-6-fluorobenzyl)piperazin-1-yl) ethan-1-one] | S (EC99≤12.5 μM) | S (EC99≤12.5 μM) | C (100 μM<EC99) | C (100 μM<EC99) | C (100 μM<EC99) | – | – | – | – | – |
| COc1cccc(O)c1CN1CCN(C(=O)[C@H](N)C2CCN(CCc3cc(Cl)ccc3-c3ccccc3)CC2)CC1 [Example 575, Hydrochloride of (R)-2-amino-2-(1-(2-(4-chloro-[1,1-biphenyl]-2-yl)ethyl)piperidin-4-yl)-1-(4-(2-hydroxy-6-methoxybenzyl)piperazin-1-yl) ethan-1-one] | – | – | – | – | – | A (12.5 μM<EC99≤25 μM) | A (12.5 μM<EC99≤25 μM) | S (EC99≤12.5 μM) | S (EC99≤12.5 μM) | A (12.5 μM<EC99≤25 μM) |
| N[C@@H](C(=O)N1CCN(Cc2cccc3c2OCO3)CC1)C1CCN(CCc2cc(Cl)ccc2-c2ccccc2)CC1 [Example 36, Hydrobromide of (R)-2-amino-1-(4-(benzo[d][1,3]dioxol-4-ylmethyl)piperazin-1-yl)-2-(1-(2-(4-chloro-[1,1′-biphenyl]-2-yl)ethyl)piperidin-4-yl) ethan-1-one] | B (25 μM<EC99≤100 μM) | B (25 μM<EC99≤100 μM) | B (25 μM<EC99≤100 μM) | C (100 μM<EC99) | B (25 μM<EC99≤100 μM) | – | – | – | – | – |
| CSc1ccccc1CN1CCN(C(=O)[C@H](N)C2CCN(CCc3cc(Cl)ccc3-c3ccccc3F)CC2)CC1 [Example 601, Hydrochloride of (R)-2-amino-2-(1-(2-(4-chloro-2′-fluoro-[1,1-biphenyl]-2-yl)ethyl)piperidin-4-yl)-1-(4-(2-(methylthio)benzyl)piperazin-1-yl) ethan-1-one] | – | – | – | – | – | B (25 μM<EC99≤100 μM) | B (25 μM<EC99≤100 μM) | A (12.5 μM<EC99≤25 μM) | A (12.5 μM<EC99≤25 μM) | A (12.5 μM<EC99≤25 μM) |
